From publication PMC9828437, “Novel hybrids of thiazolidinedione-1,3,4-oxadiazole derivatives: synthesis, molecular docking, MD simulations, ADMET study, in vitro, and in vivo anti-diabetic assessment” (RSC Advances, 2023)
Several values for one entry are separate records, joined by “and”; a condition that tells them apart may be missing. Equal entries are not always repeated.

Assays:
α-amylase = experiment: In vitro α-amylase inhibitory assay; format: biochemical; conditions: mean of three replicates ±SD
Protocol: The reaction mixture contains 20 μL of α-amylase solution (0.5 mg mL^−1) and 200 μL of sodium phosphate buffer (pH 6.9, 0.02 M). Test samples ([…]) were added (250 μL) to the reaction mixture following which; incubation was carried out for 10 min at room temperature. This was accompanied by the addition of 200 μL of 1% starch solution, and further incubated for 10 min at 25 °C. By adding 400 μL of dinitrosalicylic acid (DNS) reagent, the reaction was terminated. Lastly, it was incubated in water (70 °C, 5 min). The absorbance was recorded using an ELISA microplate reader at 540 nm. […] All the experiments were performed in triplicates. It was the reaction mixture without the test sample that served as the control for the test.[31]
The percent inhibition was calculated as:% Inhibition = [(C − T)/C] × 100C – absorbance of control, T – absorbance of sample.

α-glucosidase = experiment: In vitro α-glycosidase inhibitory assay; format: biochemical; conditions: mean of three replicates ±SD
Protocol: The reaction mixture contains 50 μL of 0.1 M phosphate buffer (pH = 6.8), 10 μL of α-glucosidase enzyme and 20 μL of test samples (10–50 μg mL^−1) were taken in a 96-well plate and incubated at 37 °C for 15 min. Furthermore, 20 μL of p-nitrophenyl D-glucopyranoside solution was added as a substrate and incubated for an additional 20 min at 37 °C. 50 μL of 0.1 M Na2CO3 is added to terminate the reaction. The liberated p-nitrophenol was measured at 405 nm with an Elisa microplate reader. […] All the experiments were performed in triplicates.[31]
The inhibition was calculated in percentage as:% Inhibition = [(C − T)/C] × 100C – absorbance of control, T – absorbance of sample.

NIH/3T3 cells = experiment: MTT cytotoxicity assay; format: cell-based; conditions: 100 μmol, 24 h incubation
Protocol: The cytotoxic concentration of synthetic compounds (5a–5j) was evaluated by MTT assay. A standard MTT assay was performed with various concentrations of synthesized compounds against NIH/3T3 cells using a 96-well microplate reader at 570 nm. The cell lines were cultured in DMEM, supplemented with 10% FBS in flasks, and incubated at 37 °C with 5% CO2 in DMEM medium with streptomycin and penicillin (100 IU mL^−1) at the appropriate concentrations. The 96-well plates with media were incubated. After overnight incubation, each plate was discarded and fresh medium was added to each well with varying concentrations (5 μM, 10 μM, 25 μM, 50 μM, 100 μM) of test samples. Then, 200 μL of MTT (0.5 mg mL^−1) were put in each well and further incubated for four hours. Afterward, DMSO (100 μL) was transferred into each microplate well. The absorbance was measured at 570 nm to determine how much MTT was reduced to formazan in the cells.

Drosophila melanogaster = experiment: In vivo antihyperglycemic test in Drosophila on high sugar diet; conditions: for significance of antihyperglycemic activity: Drosophila on HSD, 18 μg g^−1 feed; for reduction in glucose levels, female flies / percent reduction in glucose levels, male flies: HSD with 18 μg g^−1 feed, 10 days
Protocol: In this study, Oregon-R flies were obtained directly from the Nitte University, Drosophila Lab, Mangalore, India, and maintained on a wheat cream-agar medium with a relative humidity of 65–70%, and a light–dark cycle of twelve hours each. Separation of males and females of one-day-old flies were cultured in, food containing high sugar diet (HSD), and different groups of food containing HSD with uniform concentrations (18 μg g^−1 feed) of the compounds 5a, 5b, 5j for 10 days. Acarbose was administered as a positive control. Twenty flies were taken and they were homogenized in 0.2 mL of ice-cold phosphate buffer saline. (pH 7.4). Homogenized samples were centrifuged at 10 000g for 15 min at 4 °C. All fly homogenates were tested for glucose concentration using the manufacturer's protocol (Agape Diagnostics Ltd, India). Throughout the experiments, the control group was maintained in the same conditions as that of other groups except for HSD and compounds. All experiments were carried out in triplicates and the results were expressed in percentages respective to the control group.[32]
The results of all the experiments (n = 3) were analyzed and expressed as mean ± standard deviation (SD). The Student's t-test was performed using GraphPad Prism software (GraphPad Software Inc., CA, USA). p values ≤ 0.05 were considered as statistically significant (*p ≤ 0.05; *p ≤ 0.01; **p ≤ 0.001).

Compound | IC50 (α-amylase) | IC50 (α-glucosidase) | melting point | percentage cell toxicity (inhibition of cellular viability) (NIH/3T3 cells) | significance of antihyperglycemic activity (Drosophila melanogaster) | reduction in glucose levels, female flies (Drosophila melanogaster; whole-body homogenate) | percent reduction in glucose levels, male flies (Drosophila melanogaster; whole-body homogenate) | reduction in glucose level (Drosophila melanogaster; HSD along with acarbose, whole-body homogenate, sex not stated)
COc1ccc(-c2nnc(CN3C(=O)CSC3=O)o2)cc1 [Compound 5f, 3-((5-(4-Methoxyphenyl)-1,3,4-oxadiazol-2-yl)methyl)thiazolidine-2,4-dione] | 39.2 ± 0.52 µM | 51.3 ± 0.83 µM | 178 to 180 °C |  |  |  |  | 
O=C1CSC(=O)N1Cc1nnc(-c2ccccc2)o1 [Compound 5e, 3-((5-Phenyl-1,3,4-oxadiazol-2-yl)methyl)thiazolidine-2,4-dione] | 32.4 ± 0.46 µM | 33.5 ± 0.45 µM | 215 to 217 °C |  |  |  |  | 
O=C1CSC(=O)N1Cc1nnc(-c2ccc(O)cc2)o1 [Compound 5d, 3-((5-(4-Hydroxyphenyl)-1,3,4-oxadiazol-2-yl)methyl)thiazolidine-2,4-dione] | 55.4 ± 0.66 µM | 45.3 ± 0.79 µM | 192 to 194 °C | 87% |  |  |  | 
O=C1CSC(=O)N1Cc1nnc(-c2ccc(Cl)cc2)o1 [Compound 5g, 3-((5-(4-Chlorophenyl)-1,3,4-oxadiazol-2-yl)methyl)thiazolidine-2,4-dione] | 28.9 ± 0.36 µM | 27.25 ± 0.24 µM | 172 to 174 °C |  |  |  |  | 
3-((5-(4-Aminophenyl)-1,3,4-oxadiazol-2-yl)methyl)thiazolidine-2,4-dioneone [Compound 5c] | 22.6 µM and 34.1 µM | 27.25 ± 0.23 µM |  |  |  |  |  | 
O=C1CSC(=O)N1Cc1nnc(-c2ccc([N+](=O)[O-])cc2Cl)o1 [Compound 5h, 3-((5-(2-Chloro-4-nitrophenyl)-1,3,4-oxadiazol-2-yl)methyl)thiazolidine-2,4-dione] | 23.2 ± 0.31 µM | 28.2 ± 0.31 µM | 161 to 163 °C |  |  |  |  | 
O=C1CSC(=O)N1Cc1nnc(-c2ccc([N+](=O)[O-])cc2)o1 [Compound 5i, 3-((5-(4-Nitrophenyl)-1,3,4-oxadiazol-2-yl)methyl)thiazolidine-2,4-dione] | 21.1 ± 0.23 µM | 25.2 ± 0.28 µM | 153 to 155 °C |  |  |  |  | 
O=C1CSC(=O)N1Cc1nnc(-c2ccc(Cl)cc2Cl)o1 [Compound 5a, 3-((5-(2,4-Dichlorophenyl)-1,3,4-oxadiazol-2-yl)methyl)thiazolidine-2,4-dione] | 18.6 ± 0.22 µM | 17.6 ± 0.19 µM | 210 to 212 °C |  | insignificant | 12.1% | 27.7% | 
O=C1CSC(=O)N1Cc1nnc(-c2ccc(O)cc2O)o1 [Compound 5j, 3-((5-(2,4-Dihydroxyphenyl)-1,3,4-oxadiazol-2-yl)methyl)thiazolidine-2,4-dione] | 18.4 ± 0.21 µM | 17.2 ± 0.22 µM | 204 to 206 °C | 83% | significant | 37% | 29.05% | 
C[C@H]1O[C@H](O[C@H]2[C@H](O)[C@@H](O)[C@@H](O[C@H]3[C@H](O)[C@@H](O)C(O)O[C@@H]3CO)O[C@@H]2CO)[C@H](O)[C@@H](O)[C@@H]1N[C@H]1C=C(CO)[C@@H](O)[C@H](O)[C@H]1O (stereo partly shown) [Acarbose, reference compound] |  |  |  |  |  |  |  | about 62%
3-((5-(4-Bromophenyl)-1,3,4-oxadiazol-2-yl)methyl)thiazolidine-2,4-dione [Compound 5b] | 34.1 µM and 22.6 µM | 22.25 ± 0.22 µM |  |  | significant | 7.03% | 28.4% | 
